Results published in patent publication US9617267B2, “Compounds and methods for kinase modulation, and indications therefor” (Plexxikon Inc., priority 2009, dated 2017).
Where two headings read alike, the source gives them in different places.

Legend:
CYP2C9 = CYP2C9 (Homo sapiens (Human), UniProt P11712); assay: CYP enzyme inhibition, fluorescent substrate (MFC)
Summary of the method: (§1)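 Human CYP activity was followed by the fluorescence of the metabolized product of a known substrate, which falls as metabolism is inhibited. Compounds from 100 mM DMSO stocks were serially diluted 1:1 over 10 points in co-factor mix and preincubated 10 min at 37 °C. IC50 was fitted from signal versus concentration.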

B-Raf [1] = assay: B-Raf kinase activity biochemical assay (AlphaScreen, biotin-MEK1 phosphorylation); conditions: for Biochemical activity ratio B/V600E: ratio of IC50 B-Raf / B-Raf V600E; for Biochemical activity ratio B/C: ratio of IC50 B-Raf / c-Raf-1
Summary of the method: (§2)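 Biotin-MEK1 phosphorylation measured after 45 min kinase reaction at RT with 100 μM ATP final; compounds tested at 8 points from 0.1 mM DMSO stock.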

B-Raf [2] = biological target: B-Raf (Homo sapiens (Human), UniProt P15056); assay: as above; conditions: B-Raf
Summary of the method: as §2

CYP2C19 = CYP2C19 (Homo sapiens (Human), UniProt P33261); assay: CYP enzyme inhibition, fluorescent substrate (CEC)
Summary of the method: as §1

c-Raf-1 = c-Raf-1 (Homo sapiens, UniProt P04049); assay: c-Raf-1 kinase activity biochemical assay (AlphaScreen, biotin-MEK1 phosphorylation)
Summary of the method: as §2

CYP3A4(BQ) = CYP3A4(BQ) (Homo sapiens (Human), UniProt P08684); assay: CYP enzyme inhibition, fluorescent substrate BQ
Summary of the method: as §1

CYP2D6 = CYP2D6 (Homo sapiens (Human), UniProt P10635); assay: CYP enzyme inhibition, fluorescent substrate (AMMC); type: in vitro ADME; conditions: read-out: Cyp IC50 2D6
Summary of the method: (§3)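 Ten-point 1:1 compound dilutions in NADPH-regenerating cofactor mix, pre-incubated 10 min at 37 °C before enzyme/substrate addition: CYP1A2 0.5 pmol with 5 μM CEC, 15 min, 409 ex/460 em; CYP2D6 1.5 pmol with 1.5 μM AMMC, 30 min, 409 ex/530 em. IC50 from fluorescent product vs concentration.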

B-Raf V600E = B-Raf V600E (Homo sapiens (Human), UniProt P15056, V600E); assay: B-Raf V600E kinase activity biochemical assay (AlphaScreen, biotin-MEK1 phosphorylation); conditions: for IC50: B-Raf V600E; for Biochemical activity ratio V600E/C: ratio of IC50 B-Raf V600E / c-Raf-1
Summary of the method: as §2

[3] = Relative solubility by turbidity threshold concentration in aqueous buffers (pH 1.5, 4.5, 6.8, 7.4); type: physicochemical; conditions: for turbidity threshold (L, M, H) 1.4: pH 1.4 [sic] (method: SGF pH 1.5); for turbidity threshold (L, M, H) 4.5: pH 4.5 (SIF); for turbidity threshold (L, M, H) 6.8: pH 6.8 (SIF); for turbidity threshold (L, M, H) 7.4: pH 7.4 (HEPES)
Summary of the method: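 Solubility class (high >250 μM, moderate 31.3–250 μM, low <31.3 μM) comes from the concentration where absorbance reaches a 0.01 threshold, averaged across 490/535/650 nm. Samples were compound dilutions from DMSO stock, 1 μL into 99 μL buffer at pH 1.5, 4.5, 6.8 or 7.4.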

CYP1A2 = CYP1A2 (Homo sapiens (Human), UniProt P05177); assay: CYP enzyme inhibition, fluorescent substrate (CEC)
Summary of the method: as §3

CYP3A4(BFC) = CYP3A4(BFC) (Homo sapiens (Human), UniProt P08684); assay: CYP enzyme inhibition, fluorescent substrate BFC
Summary of the method: as §1

[4] = read-out: Cyp IC50 3A4(BQ), CYP3A4, substrate BQ

Sequence of CYP2D6 (P10635 whole entry): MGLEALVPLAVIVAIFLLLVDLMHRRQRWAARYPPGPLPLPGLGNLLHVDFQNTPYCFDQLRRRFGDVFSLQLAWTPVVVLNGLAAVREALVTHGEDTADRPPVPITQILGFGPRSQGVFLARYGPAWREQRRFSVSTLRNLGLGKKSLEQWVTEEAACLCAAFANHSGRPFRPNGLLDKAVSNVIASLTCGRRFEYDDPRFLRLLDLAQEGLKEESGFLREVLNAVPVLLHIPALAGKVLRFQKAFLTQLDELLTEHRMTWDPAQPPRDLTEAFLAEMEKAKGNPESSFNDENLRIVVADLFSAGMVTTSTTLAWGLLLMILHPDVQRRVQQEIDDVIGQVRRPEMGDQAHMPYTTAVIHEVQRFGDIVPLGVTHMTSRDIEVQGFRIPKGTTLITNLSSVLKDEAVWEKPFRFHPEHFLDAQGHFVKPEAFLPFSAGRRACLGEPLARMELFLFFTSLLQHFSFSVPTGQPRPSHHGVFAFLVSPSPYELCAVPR
Sequence of CYP2C9 (P11712 whole entry): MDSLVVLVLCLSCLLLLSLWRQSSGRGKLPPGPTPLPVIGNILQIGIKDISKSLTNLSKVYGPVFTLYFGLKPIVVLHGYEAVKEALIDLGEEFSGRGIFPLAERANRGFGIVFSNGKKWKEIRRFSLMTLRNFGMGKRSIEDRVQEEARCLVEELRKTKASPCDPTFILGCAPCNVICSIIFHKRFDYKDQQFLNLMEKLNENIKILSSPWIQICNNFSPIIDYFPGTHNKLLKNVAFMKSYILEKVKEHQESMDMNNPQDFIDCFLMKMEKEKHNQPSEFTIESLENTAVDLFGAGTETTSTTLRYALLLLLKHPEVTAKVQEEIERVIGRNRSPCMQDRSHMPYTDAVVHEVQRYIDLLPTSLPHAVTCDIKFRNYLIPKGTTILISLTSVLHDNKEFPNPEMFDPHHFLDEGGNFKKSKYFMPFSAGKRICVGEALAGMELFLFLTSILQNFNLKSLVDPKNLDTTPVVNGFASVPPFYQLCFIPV
Sequence of B-Raf V600E (P15056 whole entry V600E): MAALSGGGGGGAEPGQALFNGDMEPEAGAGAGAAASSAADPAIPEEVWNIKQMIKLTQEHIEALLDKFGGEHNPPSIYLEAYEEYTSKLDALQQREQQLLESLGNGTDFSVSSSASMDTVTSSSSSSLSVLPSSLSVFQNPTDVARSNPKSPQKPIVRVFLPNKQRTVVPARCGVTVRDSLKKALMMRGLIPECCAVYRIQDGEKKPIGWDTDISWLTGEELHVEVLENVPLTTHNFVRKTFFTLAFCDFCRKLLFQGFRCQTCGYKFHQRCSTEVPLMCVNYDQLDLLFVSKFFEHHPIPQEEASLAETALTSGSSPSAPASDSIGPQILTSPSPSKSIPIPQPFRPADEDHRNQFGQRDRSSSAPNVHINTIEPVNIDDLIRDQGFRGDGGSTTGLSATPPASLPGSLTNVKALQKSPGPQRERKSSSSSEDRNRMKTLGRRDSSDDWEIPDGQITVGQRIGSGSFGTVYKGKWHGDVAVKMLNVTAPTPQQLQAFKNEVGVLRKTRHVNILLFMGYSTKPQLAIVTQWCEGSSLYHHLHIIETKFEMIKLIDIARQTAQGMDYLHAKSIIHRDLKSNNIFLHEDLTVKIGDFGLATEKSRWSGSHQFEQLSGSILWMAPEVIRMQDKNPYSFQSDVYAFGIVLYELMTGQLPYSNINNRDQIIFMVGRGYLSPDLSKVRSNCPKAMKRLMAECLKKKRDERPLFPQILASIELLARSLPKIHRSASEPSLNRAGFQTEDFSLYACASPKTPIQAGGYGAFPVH
Sequence of B-Raf (Homo sapiens (Human), UniProt P15056) (P15056 whole entry): as the sequence (P15056 whole entry V600E) above, with E600V counted along it
Sequence of c-Raf-1 (P04049 whole entry, looked up): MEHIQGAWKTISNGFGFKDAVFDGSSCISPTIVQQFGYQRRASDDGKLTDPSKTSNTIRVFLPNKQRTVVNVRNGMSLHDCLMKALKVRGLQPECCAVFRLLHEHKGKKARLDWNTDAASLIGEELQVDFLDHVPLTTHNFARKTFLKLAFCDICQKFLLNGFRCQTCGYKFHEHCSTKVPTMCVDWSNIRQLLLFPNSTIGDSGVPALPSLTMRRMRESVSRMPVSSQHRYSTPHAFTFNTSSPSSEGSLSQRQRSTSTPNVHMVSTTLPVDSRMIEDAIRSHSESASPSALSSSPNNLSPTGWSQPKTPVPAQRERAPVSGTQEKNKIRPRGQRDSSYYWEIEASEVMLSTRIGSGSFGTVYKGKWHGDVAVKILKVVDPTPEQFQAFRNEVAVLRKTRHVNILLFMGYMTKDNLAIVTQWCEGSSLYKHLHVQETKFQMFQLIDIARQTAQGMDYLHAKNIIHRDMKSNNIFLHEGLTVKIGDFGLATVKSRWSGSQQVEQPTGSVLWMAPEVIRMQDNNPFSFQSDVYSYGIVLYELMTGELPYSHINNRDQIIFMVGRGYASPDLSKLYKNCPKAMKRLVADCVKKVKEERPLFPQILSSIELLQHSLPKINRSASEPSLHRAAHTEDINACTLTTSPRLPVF
Sequence of CYP3A4(BQ) (P08684 whole entry): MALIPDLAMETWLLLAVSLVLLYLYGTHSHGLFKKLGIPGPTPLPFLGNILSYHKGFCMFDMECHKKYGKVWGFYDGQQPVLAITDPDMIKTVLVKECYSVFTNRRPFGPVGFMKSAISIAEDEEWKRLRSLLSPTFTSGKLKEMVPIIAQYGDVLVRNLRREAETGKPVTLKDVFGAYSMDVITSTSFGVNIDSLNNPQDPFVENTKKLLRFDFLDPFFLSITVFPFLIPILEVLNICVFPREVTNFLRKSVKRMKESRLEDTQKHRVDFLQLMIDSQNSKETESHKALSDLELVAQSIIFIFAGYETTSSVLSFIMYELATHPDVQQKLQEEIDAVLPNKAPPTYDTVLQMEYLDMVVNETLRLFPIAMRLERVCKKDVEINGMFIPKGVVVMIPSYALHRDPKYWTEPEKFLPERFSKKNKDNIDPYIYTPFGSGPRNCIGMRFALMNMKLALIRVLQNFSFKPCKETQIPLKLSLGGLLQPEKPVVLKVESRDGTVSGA
Sequence of CYP3A4(BFC) (P08684 whole entry): as above
Sequence of CYP2C19 (P33261 whole entry): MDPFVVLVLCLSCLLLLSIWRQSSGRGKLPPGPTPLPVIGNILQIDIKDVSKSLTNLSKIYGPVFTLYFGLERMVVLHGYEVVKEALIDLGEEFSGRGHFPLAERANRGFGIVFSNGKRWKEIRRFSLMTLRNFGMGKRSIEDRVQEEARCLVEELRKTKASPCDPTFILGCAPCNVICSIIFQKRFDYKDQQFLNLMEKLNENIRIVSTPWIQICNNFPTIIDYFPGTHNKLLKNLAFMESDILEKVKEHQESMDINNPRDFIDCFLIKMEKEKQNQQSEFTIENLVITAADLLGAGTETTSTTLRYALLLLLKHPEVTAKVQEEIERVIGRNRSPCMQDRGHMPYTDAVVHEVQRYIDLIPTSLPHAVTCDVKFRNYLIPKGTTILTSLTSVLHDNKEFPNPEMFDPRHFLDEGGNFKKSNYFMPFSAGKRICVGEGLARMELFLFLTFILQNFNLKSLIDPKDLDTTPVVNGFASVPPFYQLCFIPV
Sequence of CYP1A2 (P05177 whole entry): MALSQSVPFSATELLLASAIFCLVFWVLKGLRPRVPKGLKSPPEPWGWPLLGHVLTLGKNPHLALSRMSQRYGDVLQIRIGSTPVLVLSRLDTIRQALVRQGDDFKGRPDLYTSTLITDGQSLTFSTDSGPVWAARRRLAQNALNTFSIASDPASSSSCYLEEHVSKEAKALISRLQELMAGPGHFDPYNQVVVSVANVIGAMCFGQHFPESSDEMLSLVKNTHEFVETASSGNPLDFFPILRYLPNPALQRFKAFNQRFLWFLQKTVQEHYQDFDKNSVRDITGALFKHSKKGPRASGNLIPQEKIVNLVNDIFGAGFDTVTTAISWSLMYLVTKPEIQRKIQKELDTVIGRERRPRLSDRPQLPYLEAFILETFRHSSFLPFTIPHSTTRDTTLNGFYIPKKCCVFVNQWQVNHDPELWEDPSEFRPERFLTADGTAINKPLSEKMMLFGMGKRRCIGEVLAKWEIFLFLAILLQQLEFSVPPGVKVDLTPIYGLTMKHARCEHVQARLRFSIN

Compound	Biochemical activity ratio B/V600E (B-Raf [1])	Biochemical activity ratio B/C (B-Raf [1])	IC50 (B-Raf [2]) [µM]	IC50 (c-Raf-1) [µM]	IC50 (CYP3A4(BQ); [4]) [µM]	IC50 (CYP2D6) [µM]	IC50 (B-Raf V600E) [µM]	Biochemical activity ratio V600E/C (B-Raf V600E)	turbidity threshold (L, M, H) 1.4 [3]	turbidity threshold (L, M, H) 4.5 [3]	turbidity threshold (L, M, H) 6.8 [3]	turbidity threshold (L, M, H) 7.4 [3]	IC50 (CYP1A2; human, 15 min) [µM]	IC50 (CYP3A4(BFC)) [µM]	IC50 (CYP2C9) [µM]	IC50 (CYP2C19) [µM]	IC50 (CYP3A4(BQ)) [µM]	IC50 (CYP1A2) [µM]	also measured
CCCc1ccc(S(=O)(=O)Nc2ccc(F)c(C(=O)c3c[nH]c4ncnc(NC5CC5)c34)c2F)cc1 [P-1040, N-[3-(4-cyclopropylamino-7H-pyrrolo[2,3-d]pyrimidine-5-carbonyl)-2,4-difluoro-phenyl]-4-propyl-benzenesulfonamide]	0.1-10	0.1-10	< 0.1	< 0.1	> 10	> 10	> 0.1	>10	M (moderate solubility if the threshold concentration is 31.3 μM to 250 μM)	L (low solubility if the threshold concentration is <31.3 μM)	L (low solubility if the threshold concentration is <31.3 μM)	L (low solubility if the threshold concentration is <31.3 μM)	> 10	5 to 10					IC50 (CYP2C9; read-out: Cyp IC50 2C9, CYP2C9, substrate MFC): > 10 µM; IC50 (CYP2C19; read-out: Cyp IC50 2C19, CYP2C19, substrate CEC): > 10 µM
O=C(c1c(F)ccc(NS(=O)(=O)c2ccc(C(F)(F)F)cc2)c1F)c1c[nH]c2ncnc(OCC3CC3)c12 [P-1053, N-[3-(4-Cyclopropylmethoxy-7H-pyrrolo[2,3-d]pyrimidine-5-carbonyl)-2,4-difluoro-phenyl]-4-trifluoromethyl-benzenesulfonamide]	0.1-10	0.1-10	< 0.1	< 0.1	> 10	> 10	> 0.1	>10	L (low solubility if the threshold concentration is <31.3 μM)	L (low solubility if the threshold concentration is <31.3 μM)	L (low solubility if the threshold concentration is <31.3 μM)	L (low solubility if the threshold concentration is <31.3 μM)	> 10		5 to 10	5 to 10			IC50 (CYP3A4(BFC); read-out: Cyp IC50 3A4(BFC), CYP3A4, substrate BFC): > 10 µM
CCCS(=O)(=O)Nc1ccc(F)c(C(=O)c2c[nH]c3ncc(OC)c(Cl)c23)c1F [P-2002, Propane-1-sulfonic acid [3-(4-chloro-5-methoxy-1H-pyrrolo[2,3-b]pyridine-3-carbonyl)-2,4-difluoro-phenyl]-amide]	0.1-10	0.1-10	< 0.1	< 0.1		> 10	< 0.1	0.1-10	M (moderate solubility if the threshold concentration is 31.3 μM to 250 μM)	M (moderate solubility if the threshold concentration is 31.3 μM to 250 μM)	M (moderate solubility if the threshold concentration is 31.3 μM to 250 μM)	M (moderate solubility if the threshold concentration is 31.3 μM to 250 μM)		5 to 10	< 5	< 5	5 to 10	> 10	
CCCS(=O)(=O)Nc1ccc(F)c(C(=O)c2c[nH]c3ncc(F)c(C#N)c23)c1F [P-2003, Propane-1-sulfonic acid [3-(4-cyano-5-fluoro-1H-pyrrolo[2,3-b]pyridine-3-carbonyl)-2,4-difluoro-phenyl]-amide]	0.1-10	0.1-10	< 0.1	< 0.1		> 10	< 0.1	0.1-10	M (moderate solubility if the threshold concentration is 31.3 μM to 250 μM)	M (moderate solubility if the threshold concentration is 31.3 μM to 250 μM)	M (moderate solubility if the threshold concentration is 31.3 μM to 250 μM)	M (moderate solubility if the threshold concentration is 31.3 μM to 250 μM)		5 to 10	< 5	> 10	5 to 10	> 10	
